# Values quoted from earlier work, collected in patent publication US8541386B2, “Cannabinoid 2 (CB2) receptor gene promoter and unique RNA transcripts in B cells and methods of use” (University of South Florida, priority 2009, dated 2013).
# Tested on: IL-4/anti-CD40 stimulated B cells
# Conditions: co-treatment of IL-4/anti-CD40 stimulated B cells; earlier work of the inventors' lab
smiles,measurement,value
CCCCCCC(C)(C)c1ccc([C@@H]2C[C@H](O)CC[C@H]2CCCO)c(O)c1 [CP55940],immunoglobulin class switching to IgE,increased immunoglobulin class switching to IgE
